{
  "source": "patent US8211633B2",
  "about": "“Viral variants with altered susceptibility to nucleoside analogs and uses thereof” (priority 2002, dated 2012)",
  "key": {"[1]": {"system": "HBV", "test": "Serum HBV DNA level in treated patients (Digene Hybrid Capture II capture hybridization assay)", "assay_type": "in vivo, human", "settings": "for HBV DNA: patient A, on LMV", "excerpt": "(§1) Patient A is a person with chronic hepatitis B presented on Day 0 (9 Jul. 1999) with raised serum HBV DNA levels (>2000 pg/ml) and was commenced on LMV treatment immediately (FIG. 2). The patient A was HBsAg positive and anti-HBe positive. Following the initiation of LMV treatment the HBV DNA levels fell to 8 pg/ml over 54 days of therapy. […] By Day 241 the serum ALT peaked at 741 IU/l. The HBV DNA was sequenced and LMV resistant virus was detected. […] The patient was started on open label ETV plus LMV.\nPatient B is a liver transplant patient. […] The patient was treated with LMV prior to ETV. The patient is currently on ETV treatment. […] The HBV DNA from this sample was further characterized by sequencing.\nHepatitis B surface antigen (HBsAg), hepatitis B e antigen (HBeAg), anti-HBe and hepatitis B core antigen (HBcAg) specific IgG and IgM were measured using commercially available immunoassays (Abbott Laboratories, North Chicago, Ill., USA). Hepatitis B viral DNA levels were measured using a capture hybridization assay according to the manufacturer's directions (Digene Hybrid Capture II, Digene Diagnostics Inc., Beltsville, Md.). The manufacturers stated cut-off for detecting HBV viremia in clinical specimens was 0.7×10^6 copies/ml or 2.5 pg/ml, [Hendricks D A, et al., Am J Clin Pathol 104: 537-46, 1995]."}, "[2]": {"test": "Serum ALT level in treated patient A", "assay_type": "in vivo, human", "settings": "on LMV", "excerpt": "as §1"}, "[3]": {"system": "HBV encoding rtI169T+rtV173L+rtL180M+rtM204V", "test": "Antiviral testing with recombinant HBV/baculovirus in HepG2 cells, replicative intermediates by quantitative real-time PCR, quadruple mutant", "assay_type": "cell-based, hepatitis B virus", "settings": "quadruple mutant rtI169T+rtV173L+rtL180M+rtM204V vs wild type; especially at concentrations up to 0.5 μM ETV; FIG. 11", "procedure": "The sensitivity/resistance profile of HBV mutants to entecavir was examined in vitro using recombinant HBV/baculovirus. The procedure for analysing the resistance profile is outlined in the following Examples 7-14.\nSf21 insect cells were maintained in supplemented Grace's insect medium further supplemented with 10% v/v heat-inactivated fetal bovine serum (Gibco BRL, Gaithersburg, Md.) in humidified incubator at 28 C with CO2. HepG2 cells were maintained in minimal essential medium supplemented with 10% v/v heat-inactivated fetal bovine serum (MEM-FBS). HepG2 cells were grown in humidified 37° C. incubators at 5% v/v CO2.\nThe recombinant HBV/baculovirus system used for antiviral testing has been previously described (Delaney et al., Antimicrob Agents Chemother 45(6): 1705-[…], 2001). […] The nucleotide sequence of the plasmid and the point mutations generated by site directed mutagenesis were confirmed by sequencing using the ABI Prism Big Dye Terminator Cycle Sequencing Ready Reaction Kit according to the manufacturer's specifications (Perkin Elmer, Cetus Norwalk, Conn.). […]\nHepG2 cells were seeded at approximately 20-40% confluency and then were grown for 16-24 hours before infection. On the day of infection, triplicate plates of cells were trypsinized, and viable cell number was determined with a hemocytometer using Trypan blue exclusion. […]"}, "[4]": {"system": "WHV", "settings": "chronically-infected woodchucks; cited from earlier work"}, "[5]": {"system": "HBV", "settings": "four week dose-escalation trial; highest dose tested (1 mg/daily); cited from earlier work"}, "[6]": {"settings": "day 382 post LMV treatment, day blinded ETV vs LMV phase started"}},
  "data": [
    {"smiles": "Nc1ccn([C@@H]2CS[C@H](CO)O2)c(=O)n1", "note": "[LMV, (−)-β-2′-deoxy-3′-thiacytidine]", "values": [
      {"measurement": "HBV DNA", "setting": "[1]; day 54 post LMV treatment", "value": 8, "unit": "pg/mL"},
      {"measurement": "HBV DNA", "setting": "[1]; day 173 post LMV treatment", "value": 837, "unit": "pg/mL"},
      {"measurement": "HBV DNA", "setting": "[1]; day 199 post LMV treatment", "value": 1826, "unit": "pg/mL"},
      {"measurement": "HBV DNA", "setting": "[1]; day 241 post LMV treatment", "value": 930, "unit": "pg/mL"},
      {"measurement": "HBV DNA", "setting": "[1]; day 283 post LMV treatment", "value": 1631, "unit": "pg/mL"},
      {"measurement": "HBV DNA", "setting": "[1]; day 312 post LMV treatment", "value": 1539, "unit": "pg/mL"},
      {"measurement": "HBV DNA", "setting": "[1]; day 348 post LMV treatment", "value": 1605, "unit": "pg/mL"},
      {"measurement": "HBV DNA", "setting": "[1]; [6]", "value": 1303, "unit": "pg/mL"},
      {"measurement": "ALT", "setting": "[2]; day 54 post LMV treatment", "value": 510, "unit": "IU/L"},
      {"measurement": "ALT", "setting": "[2]; day 87 post LMV treatment", "value": 211, "unit": "IU/L"},
      {"measurement": "ALT", "setting": "[2]; day 115 post LMV treatment", "value": 106, "unit": "IU/L"},
      {"measurement": "ALT", "setting": "[2]; day 173 post LMV treatment", "value": 186, "unit": "IU/L"},
      {"measurement": "ALT", "setting": "[2]; day 199 post LMV treatment", "value": 233, "unit": "IU/L"},
      {"measurement": "ALT", "setting": "[2]; day 241 post LMV treatment", "value": 741, "unit": "IU/L"},
      {"measurement": "ALT", "setting": "[2]; day 283 post LMV treatment", "value": 334, "unit": "IU/L"},
      {"measurement": "ALT", "setting": "[2]; day 312 post LMV treatment", "value": 238, "unit": "IU/L"},
      {"measurement": "ALT", "setting": "[2]; day 348 post LMV treatment", "value": 349, "unit": "IU/L"},
      {"measurement": "ALT", "setting": "[2]; [6]", "value": 317, "unit": "IU/L"}
    ]},
    {"smiles": "C=C1[C@H](CO)[C@@H](O)C[C@@H]1n1cnc2c(=O)[nH]c(N)nc21", "note": "[ETV]", "values": [
      {"measurement": "sensitivity to ETV (HBV DNA replicative intermediates by quantitative PCR)", "setting": "[3]", "value": "reduced sensitivity to ETV"},
      {"measurement": "HBV DNA levels", "setting": "[1]; patient B (liver transplant, LMV before ETV), during ETV treatment", "value": "less than 5 pg/ml"},
      {"measurement": "HBV DNA levels", "setting": "[1]; patient B, at 532 days ETV treatment (3857 days post transplant), rise", "value": 993, "unit": "pg/mL"},
      {"measurement": "efficacy against WHV", "setting": "[4]", "value": "demonstrated efficacy"},
      {"measurement": "mean reduction in viremia", "setting": "[5]", "value": 2.5, "unit": "log10"}
    ]}
  ]
}
